Data from patent publication US10124033B2, “Peptides and methods of use” (BAXALTA INCORPORATED, priority 2014, dated 2018).
Where two headings read alike, the source gives them in different places. Residues, ends and D or L forms follow the SMILES beside them.

Experiments:
[1] = target: T1, Protein S/APC cofactor activity (Homo sapiens, UniProt P07225); assay: CAT assay in pooled normal plasma supplemented with 3 nM APC; format: biochemical; conditions: 6 pM TF, 15 μM phospholipids
T1 construct: host or cells: plasma
T1 sequence (P07225 41-676 limits assumed): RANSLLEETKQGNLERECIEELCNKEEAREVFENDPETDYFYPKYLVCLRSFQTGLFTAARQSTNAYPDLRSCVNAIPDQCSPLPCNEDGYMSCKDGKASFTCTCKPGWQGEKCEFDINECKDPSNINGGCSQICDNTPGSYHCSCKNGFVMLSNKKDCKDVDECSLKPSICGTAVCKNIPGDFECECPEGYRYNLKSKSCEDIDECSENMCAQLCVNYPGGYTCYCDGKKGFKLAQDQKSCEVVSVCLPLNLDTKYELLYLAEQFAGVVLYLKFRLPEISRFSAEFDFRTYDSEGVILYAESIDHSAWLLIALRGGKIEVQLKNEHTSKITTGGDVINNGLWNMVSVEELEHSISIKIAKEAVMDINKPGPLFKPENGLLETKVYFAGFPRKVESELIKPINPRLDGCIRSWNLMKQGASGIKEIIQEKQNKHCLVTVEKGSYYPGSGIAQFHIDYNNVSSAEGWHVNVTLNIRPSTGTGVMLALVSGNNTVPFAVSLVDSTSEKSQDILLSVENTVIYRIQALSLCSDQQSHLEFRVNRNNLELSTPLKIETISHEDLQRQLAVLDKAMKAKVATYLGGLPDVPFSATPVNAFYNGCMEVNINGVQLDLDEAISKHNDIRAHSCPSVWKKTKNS
Method: Peptides also were tested for improvement of Protein S/APC-dependent thrombin generation in hemophilic plasma using a CAT assay. Protein S enhances the anticoagulation of APC in plasma. The CAT assay quantifies the effect of Protein S on APC-mediated thrombin generation initiated via the extrinsic coagulation pathway (Nicolaes, Blood Coagul. Fibrinolysis, 8:28 (1997)). APC (35 nM) and Protein S (25 nM) was added to Protein 5-depleted plasma, and plasma samples were incubated with high titer heat inactivated anti-human FVIII plasma raised in goat (4490 BU/ml; Baxter BioScience, Vienna, Austria; 50 BU/ml final plasma concentration). Thrombin formation in plasma was followed by calibrated automated thrombography (CAT) in a Fluoroskan Ascent® reader (Thermo Labsystems, Helsinki, Finland) and quantified via the thrombin peak-height. Thrombin generation was determined at high tissue factor (TF) concentration in the absence and in the presence of APC at a concentration that reduces the peak height to 20%. The inhibitory effect of peptides described herein on the APC cofactor activity of Protein S (PS) in plasma was measured in FVIII-inhibited pooled normal plasma supplemented with APC. Complete (100%) Protein S/APC inhibition is the height of the thrombin peak without addition of APC. Lack of (0%) PS/APC inhibition correlates to the thrombin peak-height value with a certain amount of APC. Peptides were ranked by their normalized values in comparison to the mean of wild-type controls including SD at two defined peptide concentrations (EC50 and EC90). […] For the assays, pooled normal plasma was supplemented with 3 nM APC and triggered with 6 pM TF, and 15 μM phospholipids (DOPC/POPS 80/20). Stock APC was diluted with TF-PL-MIX to 24 nM (plasma concentration: 3 nM).

[2] = plasma stability in mouse plasma; format: in vitro ADME; conditions: 37° C.
Method: (§1) Affinity and activity of all 18 peptides was improved compared to parent JBS2572. […] Activity and stability were improved up to 1.5-fold. Plasma stability was determined in pooled normal human plasma and mouse plasma at 37° C.; exemplary results also are provided in Table 3.

[3] = target: T2, human full-length Protein S (Homo sapiens, UniProt P07225); assay: Biacore (surface plasmon resonance) on immobilized Protein S; format: binding; conditions: Biacore; for koff / kon: Table 3; for Kd: affinity-matured and modified peptides, read-out: KD
T2 construct: using human full-length Protein S and human GAS6
T2 sequence (P07225 41-676 limits assumed): T1 sequence (P07225 41-676 limits assumed)
Method: (§2) Protein S affinity also was determined via Biacore (Biacore 3000 or Biacore T200) using human full-length Protein S and human GAS6. Briefly, 1000 RU of Protein S or GAS6 were immobilized on a CMS chip. In order to probe the kinetics of Protein S binding peptides to Protein S, the peptides were injected at various concentrations in a HBS-buffer containing 3 mM CaCl2 and 1% DMSO to the flow cell and allowed to interact with the immobilized proteins on the sensor chip. The chip could be regenerated with 4 M MgCl2 in HBS-buffer. Sensorgrams were fitted to a Langmuir binding model for the determination of kon and koff and the calculation of KD. Peptides were tested on their specificity to Protein S with peptide binding studies on the anti-target GAS6.

[4] = plasma stability in pooled normal human plasma; format: in vitro ADME; conditions: pooled normal human plasma, 37° C., 6 hours
Method: as §1

[5] = target: T3, human GAS6 (Homo sapiens, UniProt Q14393); assay: Biacore binding to anti-target GAS6; conditions: 1 μM peptide; sensorgrams reviewed visually
T3 sequence (Q14393 31-678): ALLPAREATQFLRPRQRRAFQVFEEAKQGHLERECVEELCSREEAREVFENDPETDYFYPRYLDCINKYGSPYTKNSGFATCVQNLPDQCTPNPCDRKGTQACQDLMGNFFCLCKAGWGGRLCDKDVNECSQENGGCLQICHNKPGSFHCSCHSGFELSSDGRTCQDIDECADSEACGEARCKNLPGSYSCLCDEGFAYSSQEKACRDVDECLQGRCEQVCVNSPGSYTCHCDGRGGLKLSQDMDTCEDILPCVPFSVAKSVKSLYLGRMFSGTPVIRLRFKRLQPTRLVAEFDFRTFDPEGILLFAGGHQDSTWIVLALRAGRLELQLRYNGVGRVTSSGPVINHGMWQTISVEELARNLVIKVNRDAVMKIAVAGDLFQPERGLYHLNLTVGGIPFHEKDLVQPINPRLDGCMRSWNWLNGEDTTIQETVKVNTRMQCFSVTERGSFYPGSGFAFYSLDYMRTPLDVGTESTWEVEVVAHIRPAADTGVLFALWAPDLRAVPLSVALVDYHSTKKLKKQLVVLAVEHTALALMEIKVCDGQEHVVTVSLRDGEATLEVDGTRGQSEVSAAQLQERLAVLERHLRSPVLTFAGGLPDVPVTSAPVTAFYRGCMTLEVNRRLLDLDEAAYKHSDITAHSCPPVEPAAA
Method: as §2
Interactions with the anti-target GAS6 were measured via Biacore (surface plasmon resonance) (see Example 2). The maximum signal from the interaction of the peptides with human GAS6 was much lower than the signals obtained with Protein S as interaction partner. Kinetic analysis of the low GAS6 binding signals was error prone, and sensorgrams were reviewed visually to estimate anti-target binding. […] The affinity of JBS2572 for the anti-target was at least 10 times less (indeed, at least 150 times less) than the affinity of the peptides for human Protein S. The data provided by this example confirm that peptides described herein specifically bind Protein S.

| Compound | EC50 [1] [nM] | koff ([3]; read-out: koff) [s⁻¹] | kon ([3]; read-out: kon) [M⁻¹ s⁻¹] | Kd [3] [nM] | koff [3] [s⁻¹] | kon [3] [M⁻¹ s⁻¹] | binding to GAS6 [5] | Stability in mouse plasma; 4 hours [%] [2] [%] | Stability in human plasma; 6 hours [%] [4] [%] |
| --- | --- | --- | --- | --- | --- | --- | --- | --- | --- |
| JBS3322: JBS3206 monomer comprising a 40 kD PEG moiety (Ac-EYIVTAGWYDYNKDIYYEFKC-NH2; not fully specified (residue 21)) | – | – | – | – | 0.000278 | 78000 | not to interact | 91 ± 26 | 131 ± 14 |
| JBS3321: tetramer of JBS3319 monomers together with a four arm 10 kD PEG moiety (Ac-EYYVSAGWYDYNTDTYYEFEC-NH2; not fully specified (residue 21); also: tetramer: four chains joined through C-terminal Cys maleimide to a four-arm 10 kD PEG core) | – | – | – | – | 3.88e-05 | 1.58e+06 | – | 94 ± 12 | 99 ± 6 |
| JBS3318: JBS3319 conjugated to 40 kD PEG moiety (Ac-EYYVSAGWYDYNTDTYYEFEC-NH2; not fully specified (residue 21)) | – | – | – | – | 0.000213 | 152000 | not to interact | 102 ± 20 | 114 ± 8 |

Further lines, with some results ahead:

| EC50 [1] [nM] | koff ([3]; read-out: koff) [s⁻¹] | kon ([3]; read-out: kon) [M⁻¹ s⁻¹] | Kd [3] [nM] | koff [3] [s⁻¹] | kon [3] [M⁻¹ s⁻¹] | binding to GAS6 [5] | Compound | Stability in mouse plasma; 4 hours [%] [2] [%] | Stability in human plasma; 6 hours [%] [4] [%] |
| --- | --- | --- | --- | --- | --- | --- | --- | --- | --- |
| 155 | – | – | – | – | – | – | CC(=O)N[C@H](C(=O)NCC(=O)N[C@@H](CC(C)C)C(=O)N[C@H](C(=O)N[C@@H](CO)C(=O)N[C@@H](C)C(=O)NCC(=O)N[C@@H](Cc1c[nH]c2ccccc12)C(=O)N[C@@H](Cc1ccc(O)cc1)C(=O)N[C@@H](CC(=O)O)C(=O)N[C@@H](Cc1ccc(O)cc1)C(=O)N[C@@H](CC(N)=O)C(=O)N[C@@H](Cc1ccccc1)C(=O)N[C@@H](CC(=O)O)C(=O)N[C@H](C(=O)N[C@@H](Cc1ccc(O)cc1)C(=O)N[C@H](C(=O)N[C@@H](CCC(=O)O)C(=O)N[C@@H](Cc1ccccc1)C(=O)N[C@H](C(N)=O)[C@@H](C)O)[C@@H](C)O)[C@@H](C)O)C(C)C)[C@@H](C)O [JBS3188] (Ac-TGLVSAGWYDYNFDTYTEFT-NH2) | – | – |
| – | 0.000322 | 735000 | 0.4 | – | – | – | CC[C@H](C)[C@H](NC(=O)[C@H](C)NC(C)=O)C(=O)N[C@@H](Cc1ccc(O)cc1)C(=O)N[C@H](C(=O)N[C@H](C(=O)N[C@@H](C)C(=O)NCC(=O)N[C@@H](Cc1c[nH]c2ccccc12)C(=O)N[C@@H](Cc1ccc(O)cc1)C(=O)N[C@@H](CC(=O)O)C(=O)N[C@@H](Cc1ccc(O)cc1)C(=O)N[C@@H](CC(N)=O)C(=O)N[C@@H](CC(N)=O)C(=O)N[C@@H](CC(=O)O)C(=O)N[C@H](C(=O)N[C@@H](Cc1ccc(O)cc1)C(=O)N[C@@H](Cc1ccc(O)cc1)C(=O)N[C@@H](CCC(=O)O)C(=O)N[C@@H](Cc1ccccc1)C(=O)N[C@H](C(N)=O)[C@@H](C)O)[C@@H](C)O)[C@@H](C)O)C(C)C [JBS3283] (Ac-AIYVTAGWYDYNNDTYYEFT-NH2) | 94 ± 6 | 90 ± 9 |
| – | 0.000264 | 629000 | 0.4 | – | – | – | CC[C@H](C)[C@H](NC(=O)[C@H](CC(=O)O)NC(=O)[C@H](CCCCN)NC(=O)[C@H](CC(N)=O)NC(=O)[C@H](Cc1ccc(O)cc1)NC(=O)[C@H](CC(=O)O)NC(=O)[C@H](Cc1ccc(O)cc1)NC(=O)[C@H](Cc1c[nH]c2ccccc12)NC(=O)CNC(=O)[C@H](C)NC(=O)[C@@H](NC(=O)[C@@H](NC(=O)[C@@H](NC(=O)[C@H](Cc1ccc(O)cc1)NC(=O)[C@H](CCC(=O)O)NC(C)=O)[C@@H](C)CC)C(C)C)[C@@H](C)O)C(=O)N[C@@H](Cc1ccc(O)cc1)C(=O)N[C@@H](Cc1ccc(O)cc1)C(=O)N[C@@H](CCC(=O)O)C(=O)N[C@@H](Cc1ccccc1)C(=O)N[C@@H](CCCCN)C(N)=O [JBS3263] (Ac-EYIVTAGWYDYNKDIYYEFK-NH2) | 56 ± 6 | 74 ± 12 |
| – | 0.000402 | 1e+06 | 0.4 | – | – | – | CC(=O)N[C@@H](Cc1c[nH]cn1)C(=O)N[C@@H](Cc1c[nH]c2ccccc12)C(=O)N[C@@H](Cc1ccc(O)cc1)C(=O)N[C@H](C(=O)N[C@@H](CO)C(=O)N[C@@H](C)C(=O)NCC(=O)N[C@@H](Cc1c[nH]c2ccccc12)C(=O)N[C@@H](Cc1ccc(O)cc1)C(=O)N[C@@H](CC(=O)O)C(=O)N[C@@H](Cc1ccc(O)cc1)C(=O)N[C@@H](CC(N)=O)C(=O)N[C@@H](CCC(=O)O)C(=O)N[C@@H](CC(=O)O)C(=O)N[C@@H](CCCCN)C(=O)N[C@@H](Cc1ccc(O)cc1)C(=O)N[C@@H](Cc1ccc(O)cc1)C(=O)N[C@@H](CCC(=O)O)C(=O)N[C@@H](Cc1ccccc1)C(=O)N[C@@H](CCC(=O)O)C(N)=O)C(C)C [JBS3306] (Ac-HWYVSAGWYDYNEDKYYEFE-NH2) | 80 ± 14 | 84 ± 12 |
